# Legend:
# [1] = system: Leukemia L1210; test: Activity against Leukemia L1210, intraperitoneal, increase in life span of mice; assay type: in vivo, female mice (BDF1 family); conditions: for O.D. (optimum dosage) / ILS30 / ED (maximum ILS) / ED30: ip once a day for 5 successive days; for O.D. (optimum dosage) / ED (maximum ILS): daily dosage giving maximum increase of life span; for ILS30 / ED30: daily dosage increasing average survival days by 30%; for Survivors after 60 days / Max. ILS % / Therapeutic ratio TR: ip; for Survivors after 60 days: 6-membered group; for Max. ILS %: 60-day observation, versus control; for Therapeutic ratio TR: O.D./ILS30; for ED (maximum ILS) / ED30: Mus musculus, L1210, ip; for ED (maximum ILS): read-out: O.D. (optimum dosage); for ED30: read-out: ILS30
# Method: Tests were conducted in accordance with the method for measuring antitumor activity of National Cancer Center Tokyo (A, Hoshi et al, Farumashia 9 464 (1973)). Test compounds were each intraperitoneally (referred to as ip) or orally (referred to as op) administered once a day for 5 successive days to a 6-membered group of femal mice (BDF1 family, each weighing 20 to 23 g) 24 hours after 1×10^5 cells of Leukemia L1210 have been implantated into the abdominal cavities of the mice, and the effect was evaluated by comparing the survival days of treated groups with those of an untreated group of mice (control group) in 60-day observation. An increase percentage of life span (ILS%) was calculated from said average survival days compared with those of the control group. Further, therapeutic ratio (O.D./ILD30, referred to as T.R.) of each tested compound was calculated from the daily dosage of the compound necessary to increase said average survival days by 30% as compared with the control group (this dosage is referred to as ILS 30) and the daily dosage giving a maximum increase of life span to mice implantated with L1210 cells, namely an optimum dosage (referred to as O.D.). The results of five successive days intraperitoneal administrations of test compounds were shown in Tables I to III, and those of five successive oral administrations in Table IV.
# [2] = Acute toxicity (LD50, Behrens-Karber method); assay type: in vivo, ICR mice; conditions: ip, mortality during 30 days; for LD50 at 720 h: mouse, in vivo
# Method: Test compounds, dissolved or suspended in 0.5% aqueous CMC, were each intraperitoneally administered to ICR mice in a dose of 0.1 ml per 10 g body weight. LD50 (mg/kg) value of each test compound was calculated from the mortality of mice during 30 days by the Behrens-Karber method.
Compound,O.D. (optimum dosage) [1] [mg/kg],ILS30 [1] [mg/kg],Survivors after 60 days [1],Max. ILS % [1] [%],Therapeutic ratio TR [1],LD50 [2] [mg/kg],ED (maximum ILS) [1] [mg/kg],ED30 [1] [mg/kg],LD50 at 720 h [2] [mg/kg],LD50 ([2]; 43200 min) [mg/kg]
3-(2-methoxyethyl)-3-(1-methoxyethyl α-D-glucopyranose-3-yl)-1-(2-chloroethyl)-1-nitrosourea [Compound 80],200,4.17,5/6,> 625,48.0,640,,,,
"CCCO[C@H]1O[C@H](CN(CC(C)C)C(=O)N(CCCl)N=O)[C@@H](O)[C@H](O)[C@H]1O [Compound 1, 3-isobutyl-3-(n-propyl α-D-glucopyranose-6-yl)-1-(2-chloroethyl)-1-nitrosourea]",,,6/6,> 700,40.5,,120,2.96,340,
"CO[C@H]1O[C@H](CO)[C@@H](O)[C@H](O)[C@H]1NC(=O)N(CCCl)N=O [Compound 2MCαG, 3-(methyl α-D-glucopyranose-2-yl)-1-(2-chloroethyl)-1-nitrosourea, reference compound]",,,5/6,> 625,13.2,,15.2,1.15,46,
"CCCCO[C@H]1O[C@H](CN(CCC)C(=O)N(CCCl)N=O)[C@@H](O)[C@H](O)[C@H]1O [Compound 5, 3-n-propyl-3-(n-butyl α-D-glucopyranose-6-yl)-1-(2-chloroethyl)-1-nitrosourea]",,,6/6,> 700,38.5,,100,2.6,325,
"CCCCO[C@H]1O[C@H](CN(CCCC)C(=O)N(CCCl)N=O)[C@@H](O)[C@H](O)[C@H]1O [Compound 6, 3-n-butyl-3-(n-butyl α-D-glucopyranose-6-yl)-1-(2-chloroethyl)-1-nitrosourea]",,,6/6,> 700,40.0,,120,3,390,
"CCCCN(C[C@H]1O[C@H](OC)[C@H](O)[C@@H](O)[C@@H]1O)C(=O)N(CCCl)N=O [Compound 6MCαGB, 3-n-butyl-3-(methyl α-D-glucopyranose-6-yl)-1-(2-chloroethyl)-1-nitrosourea, reference compound]",,,4/6,> 440,22.4,,30,1.34,92,
"CO[C@H]1O[C@H](CN(CCO)C(=O)N(CCCl)N=O)[C@@H](O)[C@H](O)[C@H]1O [Compound 6MCαGHE, 3-(2-hydroxyethyl)-3-(methyl α-D-glucopyranose-6-yl)-1-(2-chloroethyl)-1-nitrosourea, reference compound]",,,4/6,> 440,21.4,,30,1.4,90,
"CO[C@H]1O[C@H](CNC(=O)N(CCCl)N=O)[C@@H](O)[C@H](O)[C@H]1O [Compound 6MCαGM, 3-(methyl α-D-glucopyranose-6-yl)-1-(2-chloroethyl)-1-nitrosourea, reference compound]",29.1,1.45,4/6,> 450,20.1,,,,,88
"CCCCCCN(C[C@H]1O[C@H](OCCCC)[C@H](O)[C@@H](O)[C@@H]1O)C(=O)N(CCCl)N=O [Compound 7, 3-n-hexyl-3-(n-butyl α-D-glucopyranose-6-yl)-1-(2-chloroethyl)-1-nitrosourea]",,,5/6,> 620,26.9,,140,5.2,410,
"CCCCCCCCCCN(C[C@H]1O[C@H](OCCCC)[C@H](O)[C@@H](O)[C@@H]1O)C(=O)N(CCCl)N=O [Compound 8, 3-n-decyl-3-(n-butyl α-D-glucopyranose-6-yl)-1-(2-chloroethyl)-1-nitrosourea]",,,3/6,> 450,22.4,,100,4.46,315,
"CCCCO[C@H]1O[C@H](CN(CC(C)C)C(=O)N(CCCl)N=O)[C@@H](O)[C@H](O)[C@H]1O [Compound 9, 3-isobutyl-3-(n-butyl α-D-glucopyranose-6-yl)-1-(2-chloroethyl)-1-nitrosourea]",,,6/6,> 700,45.0,,150,3.33,440,
"CC(C)CO[C@H]1O[C@H](CN(C(=O)N(CCCl)N=O)C(C)C)[C@@H](O)[C@H](O)[C@H]1O [Compound 13, 3-isopropyl-3-(isobutyl α-D-glucopyranose-6-yl)-1-(2-chloroethyl)-1-nitrosourea]",,,6/6,> 700,43.3,,120,2.77,375,
"CC(C)CO[C@H]1O[C@H](CN(CC(C)C)C(=O)N(CCCl)N=O)[C@@H](O)[C@H](O)[C@H]1O [Compound 14, 3-isobutyl-3-(isobutyl α-D-glucopyranose-6-yl)-1-(2-chloroethyl)-1-nitrosourea]",,,6/6,> 700,51.2,,170,3.32,510,
"CCC(C)O[C@H]1O[C@H](CN(CC(C)C)C(=O)N(CCCl)N=O)[C@@H](O)[C@H](O)[C@H]1O (stereo partly drawn) [Compound 17, 3-isobutyl-3-(sec-butyl α-D-glucopyranose-6-yl)-1-(2-chloroethyl)-1-nitrosourea]",,,6/6,> 700,47.9,,170,3.55,510,

# From US4593090A, “Novel nitrosourea compounds, method for preparing same, and pharmaceutical composition containing same” (Gogo Kimura, priority 1981, dated 1986)
